Results on one molecule are retold here after paper PMC5263243, “PPE Surface Proteins Are Required for Heme Utilization by Mycobacterium tuberculosis” (mBio, 2017).

One test concerns the target PPE36 (Mycobacterium tuberculosis, UniProt P9WI01). Put plainly: biochemical.
Another test has as its target T1, PPE62 (Mycobacterium tuberculosis, UniProt P9WHX7).
T1 construct: PPE62His6 (Rv3533c)
T1 sequence (P9WHX7 1-582): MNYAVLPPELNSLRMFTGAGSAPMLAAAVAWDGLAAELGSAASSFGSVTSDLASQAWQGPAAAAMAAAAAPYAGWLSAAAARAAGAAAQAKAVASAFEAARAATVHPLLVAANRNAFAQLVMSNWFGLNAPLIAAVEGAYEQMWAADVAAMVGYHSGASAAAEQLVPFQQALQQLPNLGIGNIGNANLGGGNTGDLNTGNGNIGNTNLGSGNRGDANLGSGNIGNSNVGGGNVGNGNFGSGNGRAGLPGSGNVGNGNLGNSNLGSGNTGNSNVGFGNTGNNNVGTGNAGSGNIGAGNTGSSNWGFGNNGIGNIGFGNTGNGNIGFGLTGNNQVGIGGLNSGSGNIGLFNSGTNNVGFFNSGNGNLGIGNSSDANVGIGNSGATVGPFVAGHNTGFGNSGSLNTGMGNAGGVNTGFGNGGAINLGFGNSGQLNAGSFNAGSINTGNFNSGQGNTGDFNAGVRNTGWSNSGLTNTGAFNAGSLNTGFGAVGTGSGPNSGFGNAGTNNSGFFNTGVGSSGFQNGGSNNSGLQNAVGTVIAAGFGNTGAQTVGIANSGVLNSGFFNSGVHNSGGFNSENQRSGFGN
Put plainly: SPR (Biacore T200, NTA chip, […] binding model). As to conditions: read-out: Heme dissociation constant.

Chain of PPE36 (P9WI01 whole entry): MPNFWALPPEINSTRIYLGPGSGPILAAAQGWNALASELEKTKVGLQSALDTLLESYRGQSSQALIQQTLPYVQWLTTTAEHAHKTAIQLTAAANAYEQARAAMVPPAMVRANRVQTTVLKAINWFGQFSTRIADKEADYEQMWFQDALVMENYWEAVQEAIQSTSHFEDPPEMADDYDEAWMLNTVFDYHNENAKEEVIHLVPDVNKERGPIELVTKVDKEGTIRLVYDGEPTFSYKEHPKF
Chain of PPE36 (L7N6B5 1-98 partner): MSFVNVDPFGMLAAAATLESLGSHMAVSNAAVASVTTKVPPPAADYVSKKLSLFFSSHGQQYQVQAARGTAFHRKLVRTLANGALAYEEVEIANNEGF

As to `C=CC1=C(C)C2=Cc3c(C=C)c(C)c4[n]3[Fe]([Cl])[n]3c(c(C)c(CCC(=O)O)c3=CC3=NC(=C4)C(C)=C3CCC(=O)O)=CC1=N2` [hemin], the Kd at PPE36 turned out to be 4000 µM; on PPE62, 400 µM.
